According to paper PMC5293122, “Linalool, a Piper aduncum essential oil component, has selective activity against Trypanosoma cruzi trypomastigote forms at 4°C” (Memórias do Instituto Oswaldo Cruz, 2017):
≈ marks a conversion by molar mass, not a printed value. Where “and” joins values, the source holds several entries; their conditions need not be identical. Equal values may be shown once. Entries after “also recorded” stand apart in the source; their conditions may differ. Read-outs that look alike come from different tables or passages of the source.

How the values were obtained:
[1] = test system: Trypanosoma cruzi cell-derived trypomastigotes; test: Activity on cell-derived trypomastigotes at 4 °C, 24 h, MTT assay; type: cell-based, T. cruzi clone Dm28c; details: for Selectivity index (SI) - Vero cells: Table II, CC50 Vero cells / IC50 cell-derived trypomastigotes (4 °C); for IC50: Trypanosoma cruzi
Vero cells = test: Cytotoxicity on Vero cells, MTT assay; type: cell-based; details: 1 µg/mL, 24 h; not shown
[2] = test system: Trypanosoma cruzi epimastigotes; test: PaEO activity on epimastigotes at 28 °C, 24 h, MTT assay; type: cell-based, T. cruzi clone Dm28c
Procedure: (§1) Parasites - In this work, we used the T. cruzi clone Dm28c. Epimastigote forms were kept at 28 °C in LIT medium supplemented with 10% inactivated FCS, with passages at every three days. For the experiments, parasites obtained from 72-h cultures were used.
(§2) Single drug activity assays on T. cruzi developmental forms - All experiments were performed in biological and technical triplicates. Incubations were performed for 24 h in all bioassays. The absorbance of untreated cells in culture media containing 0.5% DMSO (control) was used as 100% cell viability, and the percentage of dead cells in each treatment was estimated by comparison with the untreated control.
(§3) For all assays, IC50/24 h values (based on cell counting, MTT data or infection index values) and dose-response curves were generated using the CompuSyn software (ComboSyn Inc., Paramus, NJ, USA), and statistical analysis was performed in Excel. For all assays, the fraction of affected cells (Fa) was calculated relative to the untreated control (treated/untreated ratio).
To test the activity of PaEO on epimastigote forms, these cells were seeded into 96-well plates (5 x 10^6 cells/well) in LIT medium, and treated for 24 h at 28 °C with PaEO at the final concentrations of 9, 18, 37, 75, 150 and 300 µg/mL. […] Cell viability was assessed by the MTT assay (see “MTT assay”). […]

[3] = test system: Trypanosoma cruzi cell-derived trypomastigotes; test: PaEO activity on cell-derived trypomastigotes at 28 °C, 24 h, cell counting; type: cell-based, T. cruzi clone Dm28c
Procedure: To obtain cell-derived trypomastigotes, Vero cells were incubated with cell-derived trypomastigotes (1:10 ratio of cells to parasites) in 75 cm^2 culture flasks containing 8 mL DMEM. After 4 h of interaction, non-internalised parasites were removed by rinsing with phosphate-buffered saline (PBS), new medium was added, and then changed to fresh medium every 24 h. After 96 h of infection, trypomastigotes released into the supernatant were collected by centrifugation at 3000 g for 10 min.
PaEO activity assays with cell-derived trypomastigotes were performed at 28 °C and 4 °C. […]

[4] = test system: Trypanosoma cruzi metacyclic trypomastigotes; test: PaEO activity on metacyclic trypomastigotes at 28 °C, 24 h, cell counting; type: cell-based, T. cruzi clone Dm28c
Procedure: as §1
To obtain metacyclic trypomastigotes, culture epimastigotes in late logarithmic growth phase (five days) were subjected to nutritional stress as described previously ([Contreras et al. 1985]). […]
Single drug activity assays on T. cruzi developmental forms - All experiments were performed in biological and technical triplicates. […] The absorbance of untreated cells in culture media containing 0.5% DMSO (control) was used as 100% cell viability, and the percentage of dead cells in each treatment was estimated by comparison with the untreated control.
For all assays, IC50/24 h values (based on cell counting, MTT data or infection index values) and dose-response curves were generated using the CompuSyn software (ComboSyn Inc., Paramus, NJ, USA), and statistical analysis was performed in Excel. For all assays, the fraction of affected cells (Fa) was calculated relative to the untreated control (treated/untreated ratio). […]

[5] = Cytotoxicity on Vero cells, MTT assay; type: cell-based; details: African green monkey, Vero cells (ATCC CCL-81), Vero cells
Procedure: MTT assay - After drug treatments, MTT solution (10 mg/mL in PBS) was added to each well for a final concentration of 2.5 mg/mL (or 1 mg/mL for trypomastigotes). Plates were incubated for 3 h at 28 °C in the dark, centrifuged for 10 min at 475 g and the supernatant was removed (by quick plate reversal). Then, 20 µL SDS was added to each well, followed by incubation for 1 h at 28 °C, after which 80 µL DMSO was added to each well and incubated for a further 1 h at 28 °C. Finally, the residual material was removed with the aid of a toothpick, and sample absorbance (at 550 nm) was read in an EL800 microplate reader (Biotek, Winooski, VT, USA). Dose-response curves were produced using the CompuSyn software, which was also used to calculate IC50/24 values.
Cytotoxicity - Vero cells were seeded in 96-well plates (2 x 10^4 cells/well) with RPMI-1640 medium and cultivated for 24 h at 37 °C (5% CO2). […] Then, plates were subjected to the MTT assay as described above (see “MTT assay”), and MTT data were used to calculate 50% cytotoxicity (CC50/24 h) values. Plates were examined in an inverted microscope every 12 h, to evaluate monolayer integrity (confluence and adhesion).

Chagas disease = details: cited from earlier work; for Treatment efficacy: ref Rassi et al. 2009
[6] = test system: Trypanosoma cruzi intracellular amastigotes; test: PaEO activity against intracellular amastigotes in Vero cells, 37 °C, 24 h, infection index; type: cell-based; details: for Amastigotes per cell / Infected cells (%): Vero cells; for Infection index (II): II = % infected cells x amastigotes per cell
Procedure: Vero cells - Vero cells (ATCC CCL-81) were grown in RPMI-1640 medium with L-glutamine (Sigma Aldrich, St. Louis, MO, USA), supplemented with 5% fetal calf serum (FCS; Cultilab, Campinas, SP, Brazil), at 37 °C, and in a humidified 5% CO2 atmosphere. For seeding, cell monolayers were washed twice with PBS (pH 7.2), trypsinized and collected by centrifugation at 100 g for 2 min.
as §1, §2, §3
To test PaEO activity against intracellular amastigotes, Vero cells were seeded in 24-well plates (2 x 10^4 cells/well) in DMEM (Sigma-Aldrich), and allowed to adhere for 24 h. Then, cell-derived trypomastigotes were added to each well (1:10 ratio of cells to parasites), incubated for 3 h, and non-internalised parasites were removed by washing with PBS. Infected cultures were incubated for 24 h (at 37 °C, 5% CO2), and then the culture medium was replaced with RPMI-1640 containing PaEO or BZ at final concentrations between 1 and 100 µg/mL (total volume of 1 mL/well), and plates were incubated for 24 h, at 37 °C (5% CO2). Treated cells were fixed with methanol, stained with Giemsa, and the inhibitory effect on intracellular amastigotes was estimated by counting (a) the number of infected cells, and (b) the number of amastigotes per cell, in 100 cells/wells, from random light microscopy images.

red blood cells (RBCs) = test: Cytotoxicity on red blood cells at 4 °C; type: cell-based, human; details: CC50 RBCs (4 °C) / IC50 cell-derived trypomastigotes (4 °C)
Procedure: (§4) To analyse cytotoxicity on red blood cells (RBCs) at 4 °C, human erythrocytes were obtained from 10-mL blood samples (O+), from a healthy volunteer donor, as previously described ([Izumi et al. 2012]). After collection, blood was […] and then washed with a sterile ‘saline-glucose’ solution (0.85% NaCl/5% glucose). The final pellet was diluted in saline-glucose and centrifuged for 5 min at 1400 g. The supernatant was discarded and the pellet of RBCs was diluted in saline-glucose, for a final concentration of 6%. […] Negative control samples represented untreated RBCs diluted in saline-glucose. After treatment, plates were centrifuged at 1027 g for 2 min, and 100 µL of supernatant from each well were transferred to a new plate and analysed (at 550 nm) in an EL800 microplate reader (Biotek, Winooski, VT, USA). Cytotoxicity (CC50) values were calculated using Excel, and selectivity index (SI) values were calculated as the ratio between the CC50/24 h (for Vero cells or RBCs) and IC50/24 h values.

[7] = test system: T. cruzi blood trypomastigotes (Y strain); parameters: method as in Santoro et al. 2007b; details: ref Santoro et al. 2007b; cited from earlier work
[8] = Cytotoxicity on red blood cells at 4 °C; type: cell-based, human; details: red blood cells (erythrocytes); human RBCs, 4 °C
Procedure: as §4

[9] = Trypanosoma cruzi, 24 h, read-out: IC50/24 h
[10] = 37 °C, read-out: Vero cells CC50/24 h

C=CC(C)(O)CCC=C(C)CCC=C(C)C (mixture of isomers) [nerolidol]
Trypanocidal activity (light microscopy and MTT) ([1]; 100 ng/mL to 1 µg/mL, 4 °C, 24 h, data not shown): no appreciable trypanocidal activity; also recorded: failed to affect significantly
Integrity of Vero cell monolayers (Vero cells): did not affect the integrity; also recorded: remained intact

O=C(Cn1ccnc1[N+](=O)[O-])NCc1ccccc1 [BZ, Benznidazole]
Selectivity index (SI) ([2]; CC50 on Vero cells / IC50, epimastigotes 28 °C): 69.4
IC50 [2, 9]: 45 µM and 14.7 µg/mL
Selectivity index (SI) ([3]; CC50 on Vero cells / IC50, cell-derived trypomastigotes 28 °C): 63.4
IC50 [3, 9]: 16.1 µg/mL (≈ 61.9 µM)
Selectivity index (SI) ([4]; CC50 on Vero cells / IC50, metacyclic trypomastigotes 28 °C): 3,646.4
IC50 [4, 9]: 0.3 µg/mL (≈ 1.15 µM)
CC50 at 24 h [5, 10]: > 1000 µg/mL
Treatment efficacy (Chagas disease; acute phase of the disease): approximately 80%
Treatment efficacy (Chagas disease; chronic phase of the disease): ~20%
Treatment discontinuation due to side effects (Chagas disease; ref Bern 2011): 7-13 % of cases
II decrease ([6]; 10 µg/mL, 24 h): 81.3%
Amastigotes per cell ([6]; 10 µg/mL, 24 h): 2.5
Infected cells (%) ([6]; 10 µg/mL, 24 h): 74.9%
Infection index (II) ([6]; 10 µg/mL, 24 h): 187.2
II decrease ([6]; 50 µg/mL, 24 h): 99.9%
Amastigotes per cell ([6]; 50 µg/mL, 24 h): 0.9
Infected cells (%) ([6]; 50 µg/mL, 24 h): 0.4%
Infection index (II) ([6]; 50 µg/mL, 24 h): 0.3
Selectivity index (SI) ([6]; CC50 on Vero cells / IC50, amastigotes 37 °C): 1,276.2
IC50 ([6]; Trypanosoma cruzi, Vero, 24 h, read-out: IC50/24 h): 0.8 µg/mL (≈ 3.07 µM)

CN(C)c1ccc(C(=C2C=CC(=[N+](C)C)C=C2)c2ccc(N(C)C)cc2)cc1 [Gentian Violet, gentian violet]
Selectivity index (SI) - Vero cells [1]: 2.9
Selectivity index (SI) - RBCs (red blood cells (RBCs)): > 2.8

C=CC(C)(O)CCC=C(C)C (centres unmarked) [Linalool, linalool]
IC50/24 h [7]: 264 µg/mL (≈ 1710 µM)
Selectivity index (SI) - Vero cells [1]: 2.7
Selectivity index (SI) - Vero cells ([1]; listed as linalool): 2.69
IC50 ([1]; cell-derived trypomastigotes, 4 °C, 24 h, read-out: IC50/24 h): 0.306 µg/mL (≈ 1.98 µM)
IC50 ([1]; cell-derived trypomastigotes, 4 °C, 24 h, read-out: T. cruzi IC50/24 h): 0.31 µg/mL (≈ 2.01 µM)
Times more efficient than gentian violet ([1]; cell-derived trypomastigotes, 4 °C): approximately 80,000 times
Times more effective than BZ at 28ºC ([1]; linalool at 4 °C vs BZ at 28 °C, cell-derived trypomastigotes): approximately 52 times
CC50 at 24 h [5, 10]: 0.87 µg/mL (≈ 5.64 µM)
CC50 at 24 h ([5]; b44 prints at 4 °C, read-out: CC50/24 h): 0.824 µg/mL (≈ 5.34 µM)
CC50 at 24 h [8]: 7340 µg/mL (≈ 47600 µM)
Selectivity index (SI) - RBCs (red blood cells (RBCs)): 23,990
